Experiments:
[1] = system: subcutaneous chondrosarcoma tumors; test: Chondrosarcoma tumor growth delay after PDT; type: in vivo, Sprague-Dawley rats; settings: rats; drug dose 2.0 μmol/kg; light dose 125 J/cm2; optimal conditions, 24 hrs post drug administration
Procedure: The carbamate compounds were formulated in egg yolk phosphatidyl choline (EYP) and phosphate buffered saline (PBS) (pH 7.4). These were sterilized by filtration through a 0.2-micron nylon filter and determined to be stable for at least several weeks following formulation by HPLC. Five Sprague-Dawley rats with subcutaneous chondrosarcoma tumors in the flank of a certain volume (150-250 mm^3) were injected intravenously with various drugs at various doses. Three hours after the injection the tumors were exposed to 664-nm light at light doses of 125 J/cm^2 or 200 J/cm^2. The end point of the study was the observation of tumor regrowth (averaged over the animals) following the treatment.
Table 2 illustrates the results for the best drug and light doses that were tested in the above system and are compared with the well known photosensitizer SnET2 under optimal conditions (24 hrs post drug administration).

normal skin = test: Normal skin clearance (skin response) of photosensitizers in irradiated hairless rats; type: in vivo; settings: drug dose 0.5 μmol/Kg, light dose 150 mW/cm^2/125 J at activation wavelength, time point post injection
Text: Ester and amide cleavage appear to be the major metabolic routes. As stated previously, one of the inventors' surprising and unexpected biological observations was that the carbamate analogs produce limited skin phototoxicity. Table 1 outlines the normal skin clearance of several carbamate photosensitizers as determined by irradiating hairless rats at the activation wavelength of the photosensitizer at 150 mW/cm2/125 J at different time points post injection. As can be clearly seen, carbamate analogs elicit skin responses at very early time points (1-6 hrs) and not past 6 hrs. […] Examples in Table (1) include compounds (26) and (Chl) and (37) and (35). In these cases the hydroxylated parent tetrapyrroles (Chl) and (35), at drug doses of 0.5 μmol/Kg, elicit maximal normal skin responses at 24 and 48 hrs, respectively. By comparison, their carbamate analogs (26) and (37), at drug doses of 1.0 μmol/Kg and 1.5 μmol/Kg, respectively, elicit maximal skin responses at 6 hrs only. Clearly, if ester metabolism of the carbamate back to the parent hydroxylated macrocycle was rapid in blood plasma one would expect skin responses similar to parent hydroxylated macrocycle. This is not the case. It is known by the present inventors and others that metabolism of the propionic acid methyl ester functionality is generally slow in rat and human blood plasma (10-20% metabolism at 24 hrs).

| Compound | Days (regrowth) [1] | Skin Response (normal skin) |
| --- | --- | --- |
| CCOC(=O)C1=Cc2c3nc(cc4nc(cc5[n-]c(cc6[n-]c2c(C)c6CC)c(C)c5CC)C(C)=C4CC)[C@@H](C)[C@]13CC.[Cl-].[Cl-].[Sn] (racemic) [SnET2, Tin Ethyletiopurpurin] | 13 days | – |
| diethanolsulfonylamide zinc octaethylbenzochlorin [(35)] | – | 48 h |

Reference: patent publication US20040266748A1, “Photosensitizing carbamate derivatives” (priority 2001, published 2004)
